# Test results as given in patent US8569308B2, “Substituted heteroarylamine carboxamide analogs as mGluR5 negative allosteric modulators and methods of making and using the same” (Vanderbilt University, priority 2009, dated 2013).
# Target: rat mGluR5 (Rattus norvegicus, UniProt P31424)
# Assay: cell-based
# Experimental: The cells were loaded with a Ca2+-sensitive fluorescent dye (e.g., Fluo-4), and the plates were washed and placed in the FDSS instrument. Test compound was applied to cells 3 seconds after baseline readings were taken. Cells were incubated with the test compounds for 140 seconds and then stimulated with an EC20 concentration of an mGluR5 agonist (e.g., glutamate, 3,5-dihydroxyphenylglycine, or quisqualate); 60-80 seconds later an EC80 concentration of agonist was added and readings taken for an additional 40 seconds. Data were collected at 1 Hz. […] Concentration response curves were generated using a four parameter logistical equation.
# The above described assay was operated in two modes. In the first mode (utilizing a triple add protocol), a range of concentrations of the present compounds were added to cells, followed by two single fixed concentrations of agonist (EC20 followed by EC80). If a compound acted as a potentiator, an EC50 value for potentiation of the EC20 response and a maximum extent of potentiation by the compound at this concentration of agonist was determined by non-linear curve fitting. If a compound acted as an antagonist, an IC50 value for antagonism of the EC80 response and a maximum extent of antagonism by the compound at this concentration of agonist was determined by non-linear curve fitting. In the second mode (utilizing a double add protocol), several fixed concentrations of the present compounds were added to various wells on a plate, followed by a range of concentrations of agonist for each concentration of present compound; the EC50 values for the agonist at each concentration of compound were determined by nonlinear curve fitting. A decrease in the EC50 value of the agonist with increasing concentrations of the present compounds (a leftward shift of the agonist concentration-response curve) is an indication of the degree of mGluR5 positive allosteric modulation at a given concentration of the present compound. An increase in the EC50 value of the agonist with increasing concentrations of the present compounds (a rightward shift of the agonist concentration response curve) is an indication of the degree of mGluR5 antagonism at a given concentration of the present compound. The second mode also indicates whether the present compounds also affect the maximum response to mGluR5 to agonists.
# The mGluR5 activity was determined using the metabotropic glutamate receptor activity assays in human embryonic kidney cells as described herein, wherein the human embryonic kidney cells were transfected with rat mGluR5. The mGluR5 activity data for some compounds are shown as the average of at least three experiments with the standard error in these cases. If no error is indicated for the mGluR5 activity, the values given represent the results from a single experiment or the average of two experiments.
# rat mGluR5, sequence (P31424 21-1203): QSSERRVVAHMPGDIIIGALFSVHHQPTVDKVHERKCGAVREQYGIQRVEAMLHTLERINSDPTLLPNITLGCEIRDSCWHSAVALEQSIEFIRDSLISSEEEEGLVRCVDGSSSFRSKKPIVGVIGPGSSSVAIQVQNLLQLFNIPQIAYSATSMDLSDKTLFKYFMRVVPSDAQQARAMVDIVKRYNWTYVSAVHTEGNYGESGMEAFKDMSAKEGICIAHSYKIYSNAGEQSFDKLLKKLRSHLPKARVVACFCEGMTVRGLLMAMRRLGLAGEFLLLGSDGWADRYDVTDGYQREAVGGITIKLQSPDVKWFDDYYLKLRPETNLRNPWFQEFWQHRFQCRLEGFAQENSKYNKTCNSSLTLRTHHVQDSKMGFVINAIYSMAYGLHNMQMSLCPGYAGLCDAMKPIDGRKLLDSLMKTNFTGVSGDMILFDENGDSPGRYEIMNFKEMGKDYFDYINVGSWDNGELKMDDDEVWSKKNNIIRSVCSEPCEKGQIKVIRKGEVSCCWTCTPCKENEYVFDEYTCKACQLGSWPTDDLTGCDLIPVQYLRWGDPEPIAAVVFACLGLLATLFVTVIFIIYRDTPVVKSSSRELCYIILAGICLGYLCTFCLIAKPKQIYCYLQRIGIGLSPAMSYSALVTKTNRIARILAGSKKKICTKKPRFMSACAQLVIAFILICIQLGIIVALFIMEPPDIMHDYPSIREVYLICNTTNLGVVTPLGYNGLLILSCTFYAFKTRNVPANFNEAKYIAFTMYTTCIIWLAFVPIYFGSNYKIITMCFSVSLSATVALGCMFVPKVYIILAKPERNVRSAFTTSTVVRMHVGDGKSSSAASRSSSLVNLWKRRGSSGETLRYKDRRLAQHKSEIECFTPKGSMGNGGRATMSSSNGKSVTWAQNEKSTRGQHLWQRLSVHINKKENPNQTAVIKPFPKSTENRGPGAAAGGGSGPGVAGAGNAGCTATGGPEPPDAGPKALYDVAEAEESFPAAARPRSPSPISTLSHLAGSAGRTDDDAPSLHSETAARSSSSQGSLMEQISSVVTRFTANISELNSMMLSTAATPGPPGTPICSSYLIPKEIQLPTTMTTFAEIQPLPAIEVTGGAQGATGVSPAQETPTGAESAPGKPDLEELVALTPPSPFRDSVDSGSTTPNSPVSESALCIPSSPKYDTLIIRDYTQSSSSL
row,SMILES,IC50
1,O=C(Nc1cncc(Oc2cccnc2)n1)c1cccc(Cl)c1,100 ± 12 nM
2,Cc1cccc(C(=O)Nc2cncc(Oc3cccnc3)n2)n1,> 30000 nM
3,Cc1cccc(C(=O)Nc2cncc(Oc3ccc(C)nc3)n2)c1,> 10000 nM
4,Cc1ccc(Oc2cncc(NC(=O)c3cccc(C)n3)n2)cn1,> 30000 nM
5,N#Cc1cccc(C(=O)Nc2cccc(Oc3cncnc3)n2)c1,271 nM
6,Cc1cccc(C(=O)Nc2cccc(Oc3cncnc3)n2)n1,> 30000 nM
7,N#Cc1cccc(C(=O)Nc2cccc(Oc3ccc(C(F)(F)F)nc3)n2)c1,> 30000 nM
8,O=C(Nc1ccnc(Oc2cccnc2)c1)c1cccc(Br)c1,> 10000 nM
9,N#Cc1cccc(C(=O)Nc2cncc(Oc3cccnc3)c2)c1,500 nM
10,O=C(Nc1cncc(Oc2cncnc2)c1)c1cccc(F)n1,> 30000 nM
11,O=C(Nc1cncc(Oc2cncnc2)c1)c1cscn1,> 10000 nM
12,N#Cc1csc(C(=O)Nc2cncc(Oc3cncnc3)c2)c1,> 10000 nM
13,CN(c1cncnc1)c1ccnc(NC(=O)c2cccc(C#N)c2)c1,2260 nM
14,CN(c1cccnc1)c1ccnc(NC(=O)c2cccc(Br)c2)c1,123 nM
15,CN(c1cncnc1)c1ccnc(NC(=O)c2cccc(Br)c2)c1,162 nM
16,CCN(c1cncnc1)c1cncc(NC(=O)c2cccc(C#N)c2)c1,1790 nM

# Results, then the compound that gave them:
row,IC50,SMILES
1,1120 nM,O=C(Nc1ccnc(Oc2cccnc2)c1)c1cccc(Cl)c1
2,166 nM,Cc1cccc(C(=O)Nc2cncc(Oc3cccnc3)n2)c1
3,460 nM,N#Cc1cccc(C(=O)Nc2cncc(Oc3cccnc3)n2)c1
4,> 10000 nM,Cc1ccc(Oc2cncc(NC(=O)c3cccc(Cl)c3)n2)cn1
5,87 nM,Cc1cccc(C(=O)Nc2cccc(Oc3cncnc3)n2)c1
6,> 10000 nM,Cc1cccc(C(=O)Nc2cncc(Oc3ccc(C(F)(F)F)nc3)n2)c1
7,> 30000 nM,Cc1cccc(C(=O)Nc2cncc(Oc3ccc(C(F)(F)F)nc3)n2)n1
8,266 nM,N#Cc1cccc(C(=O)Nc2cccc(Oc3cccnc3)n2)c1
9,> 30000 nM,Cc1cccc(C(=O)Nc2cccc(Oc3ccc(C(F)(F)F)nc3)n2)c1
10,> 30000 nM,Cc1cccc(C(=O)Nc2cccc(Oc3ccc(C(F)(F)F)nc3)n2)n1
11,> 10000 nM,O=C(Nc1cncc(Oc2cncnc2)c1)c1cccc(F)c1
12,927 nM,O=C(Nc1cncc(Oc2cncnc2)c1)c1cc(Cl)ccc1F
13,> 30000 nM,O=C(Nc1cncc(Oc2cncnc2)c1)c1cccc(C(F)(F)F)n1
14,> 10000 nM,N#Cc1cncc(C(=O)Nc2cncc(Oc3cncnc3)c2)c1
